Earlier results as cited in patent US20210275558A1, “METHODS FOR TREATING, PHARMACEUTICAL COMPOSITIONS AND USES THEREOF” (Boehringer Ingelheim International GmbH, priority 2018, published 2021).

Tests used:
[1] = in vivo
[2] = crystalline form
[3] = tested on: patients with type 2 diabetes mellitus and high cardiovascular risk
[4] = secondary outcomes analyses, patients with type 2 diabetes and established cardiovascular disease

## OC[C@H]1O[C@@H](c2ccc(Cl)c(Cc3ccc(O[C@H]4CCOC4)cc3)c2)[C@H](O)[C@@H](O)[C@@H]1O [empagliflozin, 1-chloro-4-(β-D-glucopyranos-1-yl)-2-[4-((S)-tetrahydrofuran-3-yloxy)-benzyl]benzene]
[1]
  diuretic, arterial stiffness and vascular effects: diuretic effect, reduced arterial stiffness and direct vascular effects
[2]
  solubility: good solubility properties
  stability: physico-chemically stable
[3]; in contrast to increases observed with diuretics
  reflex-mediated sympathetic activation: not being associated with clinically relevant reflex-mediated sympathetic activation
[3]; in vivo
  blood pressure and heart rate: blood pressure reductions without clinically relevant changes of the heart rate
[3]; patients with type 2 diabetes mellitus and high cardiovascular risk
  risk of cardiovascular death, hospitalization for heart failure and overall mortality: reduced the risk of cardiovascular death, hospitalization for heart failure and overall mortality
[3]; [4]
  progression of kidney disease: slowed progression of kidney disease
  risk for clinically relevant kidney events (inclusive end-stage kidney disease): reduced the risk for clinically relevant kidney events
